Experimental data reported in PubChem BioAssay AID248 (DTP/NCI, 2004).
Inconclusive results and toxic doses are left out. Cut-off read from the data, not from the text of the source: active = T/C of 150% or more; inactive = T/C below 125%.

System: L1210 leukemia ip in BDF1 mice, survival T/C
Assay: NCI In Vivo Anticancer Drug Screen. Data for tumor model L1210 Leukemia (intraperitoneal) in B6D2F1 (BDF1) mice
Conditions: endpoint: mean survival time, higher = longer survival
Procedure, shortened: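 Tumor cells were implanted, animals were treated, and survival was followed. The result divides the treated measurement by the vehicle-control measurement.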

[1] = dose: 50.0 mg/kg/injection, schedule: Q01DX009 (ip), vehicle: Klucel (hydroxypropylcellulose) (HPC)
[2] = dose: 100.0 mg/kg/injection, schedule: Q01DX009 (ip), vehicle: Klucel (hydroxypropylcellulose) (HPC)
[3] = dose: 100.0 mg/kg/injection, schedule: Q04DX003 (ip), vehicle: Klucel (hydroxypropylcellulose) (HPC)
[4] = dose: 200.0 mg/kg/injection, schedule: Q04DX003 (ip), vehicle: Klucel (hydroxypropylcellulose) (HPC)
[5] = dose: 400.0 mg/kg/injection, schedule: Q04DX003 (ip), vehicle: Klucel (hydroxypropylcellulose) (HPC)
[6] = dose: 200.0 mg/kg/injection, schedule: Q01DX009 (ip), vehicle: Klucel (hydroxypropylcellulose) (HPC)
[7] = dose: 400.0 mg/kg/injection, schedule: Q01DX009 (ip), vehicle: Klucel (hydroxypropylcellulose) (HPC)
[8] = dose: 100.0 mg/kg/injection, schedule: Q01DX001 (ip), vehicle: saline
[9] = dose: 200.0 mg/kg/injection, schedule: Q01DX001 (ip), vehicle: saline
[10] = dose: 400.0 mg/kg/injection, schedule: Q01DX001 (ip), vehicle: saline
[11] = dose: 100.0 mg/kg/injection, schedule: Q04DX003 (ip), vehicle: saline
[12] = dose: 200.0 mg/kg/injection, schedule: Q04DX003 (ip), vehicle: saline
[13] = dose: 25.0 mg/kg/injection, schedule: Q01DX009 (ip), vehicle: Klucel (hydroxypropylcellulose) (HPC)
[14] = dose: 100.0 mg/kg/injection, schedule: Q04DX003 (ip), vehicle: saline with Tween-80
[15] = dose: 200.0 mg/kg/injection, schedule: Q04DX003 (ip), vehicle: saline with Tween-80
[16] = dose: 400.0 mg/kg/injection, schedule: Q04DX003 (ip), vehicle: saline with Tween-80

Measured: T/C

CCc1ccc(NC(=O)Nc2ccccc2OC)cc1
inactive: dose: 100.0 mg/kg/injection, schedule: Q01DX009 (ip), vehicle: gum acacia 97 % of control | dose: 100.0 mg/kg/injection, schedule: Q04DX003 (ip), vehicle: gum acacia 98 % of control | dose: 200.0 mg/kg/injection, schedule: Q01DX009 (ip), vehicle: gum acacia 94 % of control | dose: 200.0 mg/kg/injection, schedule: Q04DX003 (ip), vehicle: gum acacia 92 % of control | dose: 400.0 mg/kg/injection, schedule: Q01DX009 (ip), vehicle: gum acacia 91 % of control | dose: 400.0 mg/kg/injection, schedule: Q04DX003 (ip), vehicle: gum acacia 104 % of control

O=C(O)c1ccc(CO)o1
inactive: [1] 107 % of control | [2] 93 % of control

CC(=O)SCC(C)SC(C)=O (stereo not given)
inactive: dose: 12.5 mg/kg/injection, schedule: Q04DX002 (ip), vehicle: saline with Tween-80 93 % of control | dose: 25.0 mg/kg/injection, schedule: Q04DX002 (ip), vehicle: saline with Tween-80 98 % of control | dose: 50.0 mg/kg/injection, schedule: Q04DX002 (ip), vehicle: saline with Tween-80 93 % of control

CC(O)C12OC1CC1C3CC4OC45CC(O)CCC5(C)C3CCC12C (stereo not given)
inactive: dose: 100.0 mg/kg/injection, schedule: Q01DX001 (sc), vehicle: steriod suspending solution 106 % of control | dose: 200.0 mg/kg/injection, schedule: Q01DX001 (sc), vehicle: steriod suspending solution 103 % of control | dose: 400.0 mg/kg/injection, schedule: Q01DX001 (sc), vehicle: steriod suspending solution 109 % of control

CCCCCCCCCN(CCCCCCCCC)CC(O)c1ccc2cc(Br)c3ccccc3c2c1 (stereo not given)
inactive: dose: 222.0 mg/kg/injection, schedule: Q01DX Z (ip), vehicle: methylcellulose (MC) 98 % of control | dose: 333.0 mg/kg/injection, schedule: Q01DX Z (ip), vehicle: methylcellulose (MC) 95 % of control | dose: 500.0 mg/kg/injection, schedule: Q01DX Z (ip), vehicle: methylcellulose (MC) 92 % of control

c1cc(B2OCCNCCO2)ccc1B1OCCNCCO1
inactive: [3] 103 % of control | [4] 98 % of control | [5] 104 % of control

CC1(C)C2CCC1(C)C(OCCCN=C(N)CSS(=O)(=O)O)C2 (stereo not given)
inactive: dose: 1.5 mg/kg/injection, schedule: Q04DX002 (ip), vehicle: Klucel (hydroxypropylcellulose) (HPC) 113 % of control | dose: 3.0 mg/kg/injection, schedule: Q04DX002 (ip), vehicle: Klucel (hydroxypropylcellulose) (HPC) 100 % of control | dose: 6.0 mg/kg/injection, schedule: Q04DX002 (ip), vehicle: Klucel (hydroxypropylcellulose) (HPC) 91 % of control

CCOC(=O)Nc1ccc(C)c(Cl)c1
inactive: [2] 105 % of control | [6] 108 % of control | [7] 103 % of control

O=C1NC2CCCCCCC12 (stereo not given)
inactive: dose: 100.0 mg/kg/injection, schedule: Q04DX002 (ip), vehicle: saline + alcohol 119 % of control | dose: 200.0 mg/kg/injection, schedule: Q04DX002 (ip), vehicle: saline + alcohol 105 % of control | dose: 400.0 mg/kg/injection, schedule: Q04DX002 (ip), vehicle: saline + alcohol 105 % of control

Cc1ncc(C(=O)O)[nH]1
inactive: [8] 91 % of control | [9] 89 % of control | [10] 91 % of control

N/N=C1\c2ccccc2-c2ccc([N+](=O)[O-])cc21
inactive: dose: 100.0 mg/kg/injection, schedule: Q01DX001 (ip), vehicle: carboxymethylcellulose (CMC) 95 % of control | dose: 200.0 mg/kg/injection, schedule: Q01DX001 (ip), vehicle: carboxymethylcellulose (CMC) 93 % of control | dose: 400.0 mg/kg/injection, schedule: Q01DX001 (ip), vehicle: carboxymethylcellulose (CMC) 95 % of control

CC(=O)C(c1ccc(N(C)C)cc1)c1ccc(N(C)C)cc1
inactive: dose: 50.0 mg/kg/injection, schedule: Q01DX001 (ip), vehicle: saline 101 % of control | [8] 101 % of control | [9] 101 % of control | [10] 101 % of control

CSC1OC(C(NC(=O)N(C)N=O)C(C)O)C(O)C(O)C1O (stereo not given)
inactive: [11] 105 % of control | [12] 118 % of control

Cn1c(=O)n(C)c2ccccc21
inactive: dose: 50.0 mg/kg/injection, schedule: Q01DX009 (ip), vehicle: saline 110 % of control | dose: 100.0 mg/kg/injection, schedule: Q01DX009 (ip), vehicle: saline 106 % of control | [11] 108 % of control | [12] 108 % of control

CCOC(=O)c1ccccc1NC(=O)Nc1cc([N+](=O)[O-])ccc1F
inactive: [3] 88 % of control | [4] 92 % of control | [5] 86 % of control

CCCCC(=O)N/N=C/c1ccccc1C(=O)O
inactive: [8] 96 % of control | [9] 107 % of control | [10] 91 % of control

Cc1nc(Cl)c(CO)c(CO)c1O
inactive: dose: 12.5 mg/kg/injection, schedule: Q01DX009 (ip), vehicle: Klucel (hydroxypropylcellulose) (HPC) 95 % of control | [13] 98 % of control | dose: 25.0 mg/kg/injection, schedule: Q04DX003 (ip), vehicle: Klucel (hydroxypropylcellulose) (HPC) 94 % of control | [1] 92 % of control | dose: 50.0 mg/kg/injection, schedule: Q04DX003 (ip), vehicle: Klucel (hydroxypropylcellulose) (HPC) 90 % of control | [3] 106 % of control

CCOC(=O)C1C2OC(=O)C(C(=O)C2N=Nc2ccc(-c3ccc(N=NC4C(=O)C5C(=O)OC4C(C(=O)OCC)C5C4CC=CCC4)cc3)cc2)C1C1CC=CCC1 (stereo not given)
inactive: dose: 100.0 mg/kg/injection, schedule: Q01DX001 (ip), vehicle: other 86 % of control | dose: 100.0 mg/kg/injection, schedule: Q01DX009 (ip), vehicle: saline with Tween-80 108 % of control | [14] 100 % of control | dose: 200.0 mg/kg/injection, schedule: Q01DX001 (ip), vehicle: other 86 % of control | dose: 200.0 mg/kg/injection, schedule: Q01DX009 (ip), vehicle: saline with Tween-80 104 % of control | [15] 100 % of control | dose: 400.0 mg/kg/injection, schedule: Q01DX009 (ip), vehicle: saline with Tween-80 102 % of control | [16] 100 % of control

C/C=C(/C(=O)NC(N)=O)C(C)C
inactive: [13] 114 % of control | [1] 97 % of control | [2] 111 % of control | [6] 103 % of control | [7] 103 % of control

CCC#CC(=O)CC
inactive: dose: 7.5 mg/kg/injection, schedule: Q04DX003 (ip), vehicle: saline 94 % of control | dose: 15.0 mg/kg/injection, schedule: Q04DX003 (ip), vehicle: saline 94 % of control | dose: 30.0 mg/kg/injection, schedule: Q04DX003 (ip), vehicle: saline 95 % of control

Cc1c([N+](=O)[O-])cc(I)cc1[N+](=O)[O-]
inactive: [14] 106 % of control | [15] 108 % of control | [16] 103 % of control

O=[N+]([O-])c1ccc2c(c1)-c1[nH]c3ccccc3c1CS2
inactive: dose: 100.0 mg/kg/injection, schedule: Q01DX001 (ip), vehicle: acetone 100 % of control | dose: 200.0 mg/kg/injection, schedule: Q01DX001 (ip), vehicle: acetone 92 % of control | dose: 400.0 mg/kg/injection, schedule: Q01DX001 (ip), vehicle: acetone 92 % of control

COC(=O)C1C2C(C)=C3CCCCC3(C1C(=O)OC)C(C(=O)OC)C2C(=O)OC (stereo not given)
inactive: [8] 113 % of control | [9] 95 % of control | [10] 86 % of control

CCN(CC)c1ccc(Cc2ccc(N(CC)CC)cc2Br)c(Br)c1
inactive: [2] 100 % of control | [3] 96 % of control | [6] 105 % of control | [4] 104 % of control | [7] 107 % of control | [5] 94 % of control

CCC(C(=O)O)=C1CCCCC1
inactive: [8] 95 % of control | [9] 95 % of control | [10] 103 % of control

Cc1cc(C)c(C(=O)O)c(C)c1.[Hg]
inactive: dose: 3.0 mg/kg/injection, schedule: Q04DX003 (ip), vehicle: Klucel (hydroxypropylcellulose) (HPC) 96 % of control | dose: 6.0 mg/kg/injection, schedule: Q04DX003 (ip), vehicle: Klucel (hydroxypropylcellulose) (HPC) 91 % of control | dose: 12.0 mg/kg/injection, schedule: Q04DX003 (ip), vehicle: Klucel (hydroxypropylcellulose) (HPC) 86 % of control | dose: 12.5 mg/kg/injection, schedule: Q04DX003 (ip), vehicle: Klucel (hydroxypropylcellulose) (HPC) 88 % of control
